Consider one substance from patent US7045497B1, “Use of peptide” (Takeda Chemical Industries, Ltd., priority 1998, dated 2006).

The test system of this test is oxytocin secretion. Kind of test: Effect of third intraventricular administration of PrRP (19P2-L31) on amount of oxytocin secreted in plasma (radioimmunoassay). The test is classed as in vivo, Mature male Wistar rats. The procedure:
Mature male Wistar rats (weighing 350 to 380 g at the time of surgery) were anesthetized by intraperitoneal administration of 50 mg/kg pentobarbital, and were fixed in a rat brain stereotactic instrument. The brace bar was lowered 3.3 mm from the intra-oral line. The cranial bone was exposed, and a dental drill was used to perforate the bone in order to implant a guide cannula AG-12 (inside diameter 0.4 mm, outside diameter 0.5 mm, Eicom) into the third ventricle. Anchor screws were embedded in four locations around the cannula. The stainless steel guide cannula AG-12 was inserted to a position at the top of the third ventricle. Position coordinates were AP: +7.1 mm, L: 0.0 mm, and H: +2.0 mm, in accordance with the atlas of Paxinos and Watson (1986). The guide cannula was secured to the cranial bone using instant adhesive, dental cement, and the anchor screws. A stainless steel dummy cannula AD-12 (outside diameter 0.35 mm, Eicom) was inserted into the guide cannula and secured with a cap nut (Eicom). Following surgery, the rats were bred in individual cages.
Animal were given about 1 week to recover after implantation of the guide cannulas, and blood was drawn as the animals were allowed to move freely. Rats which had undergone the aforementioned surgery were anesthetized by intraperitoneal administration of 50 mg/kg pentobarbital. […]

No end group written: not given here.

For the substance “PrRP (19P2-L31): physiologically active peptide, ligand for G protein-coupled receptors phGR3 (GPR10) and UHR-1; described in Nature 393:272–276 (1998) and WO 97/24436 (SRTHRHSMEIRTPDINPAWYASRGIRPVGRF; ends and bridges not checked; UniProt P81277 23-53, looked up)”, under “rat, 10 nmol to the third ventricle, 5 minutes after administration, FIG. 2”, the “oxytocin concentration in blood relative to control group” value is reported as “about 2 times”. Also, the “oxytocin concentration in blood after intraventricular administration” value (rats, intraventricular administration, result in words) is on record as “elevated oxytocin concentration in blood”.
